According to patent US10519197B1, “Peptide-based proteasome inhibitors for treating conditions mediated by senescent cells and for treating cancer” (UNITY BIOTECHNOLOGY, INC., priority 2017, dated 2019):

What was measured:
Format in all cases: in vivo, mouse
[1] = system: 3MR and INK-ATTAC mice exposed to cigarette smoke; experiment: Cigarette smoke COPD model, oxygen saturation by pulse oximeter; conditions: after two months of cigarette smoke exposure, compared with untreated controls
Protocol: As a model for chronic obstructive pulmonary disease (COPD), mice were exposed to cigarette smoke. The effect of a senolytic agent on the mice exposed to smoke is assessed by senescent cell clearance, lung function, and histopathology.
The mice used in this study include the 3MR strain, described in US 2017/0027139 A1 and in Demaria et al., Dev Cell. 2014 December 22; 31(6): 722-733. The 3MR mouse has a transgene encoding thymidine kinase that converts the prodrug ganciclovir (GCV) to a compound that is lethal to cells. The enzyme in the transgene is placed under control of the p16 promoter, which causes it to be specifically expressed in senescent cells. Treatment of the mice with GCV eliminates senescent cells.
Other mice used in this study include the INK-ATTAC strain, described in US 2015/0296755 A1 and in Baker et al., Nature 2011 Nov. 2; 479(7372):232-236. The INK-ATTAC mouse has a transgene encoding switchable caspase 8 under control of the p16 promoter. The caspase 8 can be activated by treating the mice with the switch compound AP20187, whereupon the caspase 8 directly induces apoptosis in senescent cells, eliminating them from the mouse.
To conduct the experiment, six-week-old 3MR (n=35) or INK-ATTAC (n=35) mice were chronically exposed to cigarette smoke generated from a Teague TE-10 system, an automatically-controlled cigarette smoking machine that produces a combination of side-stream and mainstream cigarette smoke in a chamber, which is transported to a collecting and mixing chamber where varying amounts of air is mixed with the smoke mixture. The COPD protocol was adapted from the COPD core facility at Johns Hopkins University (Rangasamy et al., 2004, J. Clin. Invest. 114:1248-1259; Yao et al., 2012, J. Clin. Invest. 122:2032-2045).
Mice received a total of 6 hours of cigarette smoke exposure per day, 5 days a week for 6 months. Each lighted cigarette (3R4F research cigarettes containing 10.9 mg of total particulate matter (TPM), 9.4 mg of tar, and 0.726 mg of nicotine, and 11.9 mg carbon monoxide per cigarette [University of Kentucky, Lexington, Ky.]) was puffed for 2 seconds and once every minute for a total of 8 puffs, with the flow rate of 1.05 L/min, to provide a standard puff of 35 cm^3. […] The smoke chamber atmosphere was monitored for total suspended particulates (80-120 mg/m3) and carbon monoxide (350 ppm). […]
After two months of cigarette smoke (CS) exposure, lung function was assessed by monitoring oxygen saturation using the MouseSTAT PhysioSuite™ pulse oximeter (Kent Scientific). […] Mice were monitored for 30 seconds and the average peripheral capillary oxygen saturation (SpO2) measurement over this duration was calculated.

[2] = Atherosclerosis model: body composition by MRI; conditions: 25 mg/kg intraperitoneally, timepoint 3 (week 12), mice fed the high fat diet
Protocol: (§1) Two groups of LDLR−/− mice (10 weeks) are fed a high fat diet (HFD) (Harlan Teklad TD.88137) having 42% calories from fat, beginning at Week 0 and throughout the study. Two groups of LDLR−/− mice (10 weeks) are fed normal chow (−HFD). From weeks 0-2, one group of HFD mice and −HFD mice are treated with Nutlin-3A (25 mg/kg, intraperitoneally). One treatment cycle is 14 days treatment, 14 days off. Vehicle is administered to one group of HFD mice and one group of −HFD mice. At week 4 (timepoint 1), one group of mice are sacrificed and to assess presence of senescent cells in the plaques. For the some of the remaining mice, Nutlin-3A and vehicle administration is repeated from weeks 4-6. At week 8 (timepoint 2), the mice are sacrificed and to assess presence of senescent cells in the plaques. The remaining mice are treated with Nutlin-3A or vehicle from weeks 8-10. At week 12 (timepoint 3), the mice are sacrificed and to assess the level of plaque and the number of senescent cells in the plaques.
(§2) At the end of timepoint 3, LDLR−/− mice fed a HFD and treated with Nutlin-3A or vehicle (n=3 for all groups) were sacrificed, and aortas were dissected and stained with Sudan IV to detect the presence of lipid. Body composition of the mice was analyzed by MRI, and circulating blood cells were counted by Hemavet™.

[3] = system: C57BL/6J mice with surgery-induced osteoarthritis; experiment: Osteoarthritis model (ACL surgery): histopathology of joint tissue; conditions: 5.8 μg per operated knee, intra-articular; 4 weeks post-surgery
Protocol: (§3) The model was implemented as follows. C57BL/6J mice underwent surgery to cut the anterior cruciate ligament of one rear limb to induce osteoarthritis in the joint of that limb. During week 3 and week 4 post-surgery, the mice were treated with 5.8 μg of Nutlin-3A (n=7) per operated knee by intra-articular injection, q.o.d. for 2 weeks. At the end of 4 weeks post-surgery, joints of the mice were monitored for presence of senescent cells, assessed for function, monitored for markers of inflammation, and underwent histological assessment.

[4] = Atherosclerosis model: circulating blood cell counts by Hemavet; conditions: 25 mg/kg intraperitoneally, timepoint 3 (week 12)
Protocol: as §1, §2

p16, IL-6, and MMP13 = experiment: Osteoarthritis model (ACL surgery): qRT-PCR of senescence and SASP markers in operated joints; conditions: 5.8 μg per operated knee, intra-articular, q.o.d. for 2 weeks; 4 weeks post-surgery; mRNA by qRT-PCR
Protocol: as §3
Two control groups of mice were included in the studies performed: one group comprising C57BL/6J or 3MR mice that had undergone a sham surgery (n=3) (i.e., surgical procedures followed except for cutting the ACL) and intra-articular injections of vehicle parallel to the GCV (ganciclovir) treated group; and one group comprising C57BL/6J or 3MR mice that had undergone an ACL surgery and received intra-articular injections of vehicle (n=5) parallel to the GCV-treated group. RNA from the operated joints of mice from the Nutlin-3A treated mice was analyzed for expression of SASP factors (mmp3, IL-6) and senescence markers (p16). qRT-PCR was performed to detect mRNA levels.

[5] = system: C57BL/6J mice with surgery-induced osteoarthritis; experiment: Osteoarthritis model (ACL surgery): weight bearing test; conditions: 5.8 μg per operated knee, intra-articular; 4 weeks post-surgery
Protocol: as §3
Function of the limbs was assessed 4 weeks post-surgery by a weight bearing test to determine which leg the mice favored. The mice were allowed to acclimate to the chamber on at least three occasions prior to taking measurements. Mice were maneuvered inside the chamber to stand with one hind paw on each scale. The weight that was placed on each hind limb was measured over a three second period. At least three separate measurements were made for each animal at each time point. The results were expressed as the percentage of the weight placed on the operated limb versus the contralateral unoperated limb.

[6] = system: MMP3, MMP13, PAI1, p21, IGFBP2, IL-1A, and IL-1B; experiment: Atherosclerosis model (LDLR-/- mice, high fat diet): RT-PCR of SASP factors and senescent cell markers in aortic arches; conditions: 25 mg/kg intraperitoneally, HFD
Protocol: as §1, with “At week 8 (timepoint 2), the mice are sacrificed and to assess presence of senescent cells in the plaques. The remaining mice are treated with Nutlin-3A or vehicle from weeks 8-10. At week 12 (timepoint 3), the mice are sacrificed and to assess the level of plaque and the number of senescent cells in the plaques.” left out
At the end of timepoint 1, LDLR−/− mice fed a HFD and treated with Nutlin-3A or vehicle were sacrificed (n=3, all groups), and the aortic arches were dissected for RT-PCR analysis of SASP factors and senescent cell markers. Values were normalized to GAPDH and expressed as fold-change versus age-matched, vehicle-treated LDLR−/− mice on a normal diet.
At the end of timepoint 2, LDLR−/− mice fed a HFD and treated with Nutlin-3A or vehicle (n=3 for all groups) were sacrificed, and aortic arches were dissected for RT-PCR analysis of SASP factors and senescent cell markers. Values were normalized to GAPDH and expressed as fold-change versus age-matched, vehicle-treated LDLR−/− mice on a normal diet.

LDLR-/- mice fed a HFD = experiment: Atherosclerosis model (LDLR-/- mice, high fat diet): Sudan IV staining of aortic plaques; conditions: 25 mg/kg intraperitoneally, timepoint 3 (week 12)
Protocol: as §1, §2

For CC1(C)CCC(c2ccc(Cl)cc2)=C(CN2CCN(c3ccc(C(=O)NS(=O)(=O)c4ccc(N[C@H](CCN5CCOCC5)CSc5ccccc5)c(S(=O)(=O)C(F)(F)F)c4)cc3)CC2)C1 [ABT-263], which SpO2 levels [1] is on record?
The SpO2 levels was “statistically significant increases”.

Which SpO2 levels [1] does the source give for CC[C@H](C(=O)N1CCCC[C@H]1C(=O)O[C@H](CCc1ccc(OC)c(OC)c1)c1cccc(OCC(=O)NCC(CNC(=O)COc2cccc([C@@H](CCc3ccc(OC)c(OC)c3)OC(=O)[C@@H]3CCCCN3C(=O)[C@@H](CC)c3cc(OC)c(OC)c(OC)c3)c2)CN(C)C)c1)c1cc(OC)c(OC)c(OC)c1 [AP2018] here?
Its SpO2 levels is “statistically significant increases”.

What does the source list for COc1ccc(C2=N[C@@H](c3ccc(Cl)cc3)[C@@H](c3ccc(Cl)cc3)N2C(=O)N2CCNC(=O)C2)c(OC(C)C)c1 [Nutlin-3A]?
mass and body fat composition [2]: decreased; destruction of the proteoglycan layer (histopathology of joint tissue) [3]: completely abrogated this effect; platelet and lymphocyte counts versus vehicle treated mice [4]: equivalent; expression of p16, IL-6, and MMP13 in the tissue (p16, IL-6, and MMP13): reduced the expression back to below the level of the controls; SpO2 levels [1]: statistically significant increases; weight bearing: favoring of the unoperated hind limb over the operated hind limb [5]: abrogated this effect; expression of SASP factors and senescent cell markers MMP3, MMP13, PAI1, p21, IGFBP2, IL-1A, and IL-1B in aortic arch ([6]; after one treatment cycle (timepoint 1, week 4)): reduced expression; expression of SASP factors and senescent cell markers in aortic arch ([6]; multiple treatment cycles (timepoint 2, week 8)): reduced expression of most markers; reduction of the surface area covered by plaques in the descending aorta (LDLR-/- mice fed a HFD): about 45%

For Nc1nc(O)c2ncn(COC(CO)CO)c2n1 [ganciclovir], which SpO2 levels [1] is on record?
The SpO2 levels was “statistically significant increases”.
